Laboratory results taken from article PMC3050713 (Cancer chemotherapy and pharmacology, 2008).
Where a name gives a salt, the structure may show the parent alone. Read-outs that look alike come from different tables or passages of the source.

What was measured:
[1] = Phase 1 dose escalation: toxicity, DLT and MTD of Triapine with doxorubicin; assay type: in vivo, human
[2] = Triapine pharmacokinetics in plasma and erythrocytes; assay type: in vivo, human; conditions: for Tmax: 45 mg/m2, Tmax, Triapine 25 or 45 mg/m2, cycle 1 day 1
L1210 leukemia = conditions: murine models; cited from earlier work
[3] = tested on: Madison 109 (M109) lung tumors; conditions: twice daily intra-peritoneal for 5-6 days at 8-10 mg/kg/dose; cited from earlier work
A2780 ovarian tumors = conditions: twice daily intra-peritoneal for 5-6 days at 8-10 mg/kg/dose; cited from earlier work
[4] = cited from earlier work
[5] = cited from earlier work; remark: listed apart in the source
clinical = conditions: human
[6] = Doxorubicin pharmacokinetics in plasma; conditions: mean
[7] = human, erythrocytes, intravenous
[8] = 2 hour IV infusions for 5 days of every 28 day cycle

With `NC(=S)NN=Cc1ncccc1N` [Triapine, 3-aminopyridine-2-carboxaldehyde thiosemicarbazone] as the compound, how does the “recommended phase II combination dose” value ([1]; Triapine 2 hour infusion on days 1-4) read?
The value was 25 mg/m^2.

And the Cmax ([2]; erythrocytes, dose adjusted, mean)?
Its Cmax is 710 ng/mL.

And the Cl ([2]; erythrocytes, mean)?
The Cl was 0.34 mL/min/m^2.

What about the Vss ([2]; erythrocytes, mean) of the same compound?
The Vss was 83 L/m^2.

And the AUC(0-inf) [2, 7]?
Its AUC(0-inf) is 1450 ng·h/mL.

What about the Cmax [2, 7] of the same compound?
Its Cmax is 710 ± 180 ng/mL.

What about the half-life ([2]; human, erythrocytes, intravenous, 45 mg/m2) of the same compound?
The half-life was 4.2 h.

What about the Tmax ([2]; human, erythrocytes, intravenous, erythrocytes, mean) of the same compound?
The Tmax was 0.04 h.

What about the AUC(0-inf) ([2]; human, plasma, intravenous) of the same compound?
The AUC(0-inf) was 1210 ng·h/mL.

What about the Cmax ([2]; human, plasma, intravenous) of the same compound?
The Cmax was 650 ± 180 ng/mL.

What about the Tmax ([2]; human, plasma, intravenous, plasma, mean) of the same compound?
The Tmax was 0.22 ± 0.11 h.

And the half-life ([2]; human, plasma, iv)?
Its half-life is 5.3 h.

And the Cmax ([2]; plasma, dose adjusted, mean)?
The Cmax was 650 ng/mL.

What about the Cl ([2]; plasma, mean) of the same compound?
The Cl was 0.38 mL/min/m^2.

What about the Vss ([2]; plasma, mean) of the same compound?
The Vss was 107 L/m^2.

What about the anti-tumor activity (L1210 leukemia) of the same compound?
The anti-tumor activity was “displayed anti-tumor activity”.

What about the effect on tumors [3] of the same compound?
Its effect on tumors is “effective”.

And the effect on tumors (A2780 ovarian tumors)?
The effect on tumors was “effective”.

What about the “major DLT” value ([4]; 2-hour infusion daily x 5 schedule) of the same compound?
The value was “transient neutropenia”.

What about the “patients with grade 2 anemia” value [4, 8] of the same compound?
The value was 73%.

What about the “patients with grade 3 anemia” value [4, 8] of the same compound?
The value was 22%.

And the “patients with grade 3 or 4 thrombocytopenia” value [4, 8]?
Its value is 22%.

What about the “patients with grade 4 leucopenia in at least one course” value [4, 8] of the same compound?
The value was 93%.

What about the “single-agent MTD” value [4, 8] of the same compound?
Its value is 96 mg/m^2.

And the “toxicities associated with the infusion” value ([4]; 2 hour infusion of ≥ 140 mg/m^2)?
Its value is “reversible hypotension, hypoxia, dyspnea, cough, and EKG changes including ST-T wave changes and prolongation of the QT interval”.

And the DLTs ([4]; single 2-hour IV infusion every 4 weeks, doses up to 105 mg/m^2)?
Its DLTs is “no DLTs were observed”.

And the anti-tumor activity ([4]; single 2-hour IV infusion every 4 weeks)?
The anti-tumor activity was “no anti-tumor activity was observed”.

And the “recommended phase II dose” value ([4]; single agent, daily for 4 days)?
Its value is 96 mg/m2.

Which “recommended phase II combination dose” value ([1]; doxorubicin IV bolus on day 1 immediately following Triapine) does the source give for `COc1cccc2c1C(=O)c1c(O)c3c(c(O)c1C2=O)C[C@@](O)(C(=O)CO)C[C@@H]3O[C@H]1C[C@H](N)[C@H](O)[C@H](C)O1` [doxorubicin, Doxorubicin hydrochloride] here?
The value was 60 mg/m^2.

What about the “incidence of CHF” value ([5]; cumulative dose 450 mg/m^2) of the same compound?
Its value is 4%.

What about the “incidence of CHF” value ([5]; cumulative dose up to 300 mg/m^2) of the same compound?
Its value is 1%.

What about the patients with leucopenia ([5]; doxorubicin 60 mg/m^2 every 21 days) of the same compound?
Its patients with leucopenia is “approximately 75%”.

What about the half-life (clinical; in vivo, iv) of the same compound?
The half-life was 10.1 h.

What about the Tmax (clinical; plasma, intravenous) of the same compound?
Its Tmax is 0.2 h.

What about the Cl [6] of the same compound?
Its Cl is 252 mL/min/m^2.

What about the Vss [6] of the same compound?
The Vss was 219 L/m^2.
